Experimental data: patent publication US20050043273A1, “Compositions and methods for inhibiting slit protein and glypican interactions” (priority 2003, published 2005)

Legend:
[1] = tested on: glypican-1-Fc binding to human full-length Slit-2; experiment: ELISA: inhibition of glypican-1-Fc binding to Slit-2
Protocol: Human embryonic kidney 293 cells were transfected with a glypican-1-Fc fusion protein construct using Lipofectamine 2000 and grown in serum-free DMEM containing 1% ITS+. To separate the glycanated form of the proteoglycan (which was used for all studies) from unglycanated core protein, the conditioned medium was applied to a 0.9×8 cm column of DEAE-Sephacel equilibrated with 150 mM NaCl, 50 mM Tris-HCl, pH 8.0. After elution with 50 mM Tris-HCl (pH 8.0) containing 0.6 M NaCl, the glycanated glypican-1-Fc was bound to protein A-Sepharose beads, eluted with 0.1 M glycine, pH 3.0, and immediately neutralized with 1 M Tris, pH 8.0, for storage at −80° C.
293 cells were transfected with the pSecTagB vector (Invitrogen, Carlsbad, Calif.) containing cDNA for the His-tagged uncleavable variant of human full-length Slit-2, in which the nine amino acids encompassing the proteolytic processing site were deleted, producing an uncleavable full-length protein. 1 M NaCl extracts of the 293 cells were incubated with nickel-agarose beads (Qiagen) for 2 hours at 4° C., and after washing, bound protein was eluted with 10 mM Hepes (pH 7.5) containing 250 mM imidazole and 1 M NaCl. Protein concentrations were determined by the Bradford assay. Purity of the recombinant Slit protein was confirmed by SDS-PAGE followed by silver staining.
96-well plates (Corning Costar #9018) were coated overnight with the human full-length Slit-2 in imadazole/NaCl elution buffer at a saturating concentration of 1-5 μg/well, after dilution in PBS. Unbound protein was removed by washing with TBST (10 mM Tris-HCl, pH 7.4, 150 mM NaCl, 0.1% Tween 20), the wells were blocked with 10% FBS in TBST for 2 hours, and then incubated for 18 hours at room temperature with glypican-1-Fc (1 μg/well) in 5 mM PBS (pH 7.2), or in PBS containing varying concentrations of potential inhibitory compositions. Bound glypican was detected using a biotinylated anti-human Fc antibody (Jackson Immunoresearch; 1:250,000 in TBST, for 2 hours), followed by incubation for 20 minutes with HRP-conjugated streptavidin (1:20,000 in TBST). The colorimetric reaction product from the o-phenylenediamine substrate was measured at 450 nm using a Dynatech MRX ELISA plate reader. Nonspecific binding was calculated as the binding of glypican-1-Fc to wells coated with BSA (2 mg/ml solution). Percent inhibition was calculated in relation to parallel assay wells in which no inhibitor was added to the glypican-1 solution. From serial dilutions of a known concentration of glypican-1-Fc directly coated on the wells and the corresponding immunoreactivity absorbance, a standard curve could also be created and used to quantitate the absolute amount of glypican-1-Fc bound.
The glypican-1-Fc and human Slit-2 fusion proteins are prepared as set forth in Example One.

[2] = tested on: whole blood; details: cited from earlier work
[3] = tested on: vascular endothelial cells; details: cited from earlier work

% inhibition of glypican-1 binding to Slit ([1]; 1 μM) [%]	% inhibition of glypican-1 binding to Slit ([1]; 5 μM) [%]	% inhibition of glypican-1 binding to Slit ([1]; 50 μM)	Compound	inhibition of glypican binding to Slit proteins (in words) ([1]; ELISA, function of oligosaccharide size, FIG. 1)	anticoagulant activity [2]	antithrombotic activity [3]
–	–	–	Cc1ccc(C(=O)Nc2ccc(S(=O)(=O)O)c3cc(S(=O)(=O)O)cc(S(=O)(=O)O)c23)cc1NC(=O)c1cccc(NC(=O)Nc2cccc(C(=O)Nc3cc(C(=O)Nc4ccc(S(=O)(=O)O)c5cc(S(=O)(=O)O)cc(S(=O)(=O)O)c45)ccc3C)c2)c1 [suramin]	inhibits glypican-Slit interactions to the same extent as large heparin oligosaccharides	–	–
58	61	67%	O=S(=O)(O)c1cc2c(O)c(c1)Cc1cc(S(=O)(=O)O)cc(c1O)Cc1cc(S(=O)(=O)O)cc(c1O)Cc1cc(S(=O)(=O)O)cc(c1O)Cc1cc(S(=O)(=O)O)cc(c1O)Cc1cc(S(=O)(=O)O)cc(c1O)Cc1cc(S(=O)(=O)O)cc(c1O)Cc1cc(S(=O)(=O)O)cc(c1O)C2 [GL-522-Y-1]	–	no significant anticoagulant activity	heparin-like antithrombotic activity
–	–	no effect	CO[C@H]1O[C@H](COS(=O)(=O)O)[C@@H](O[C@@H]2O[C@@H](C(=O)O)[C@@H](O[C@H]3O[C@H](COS(=O)(=O)O)[C@@H](O[C@@H]4O[C@H](C(=O)O)[C@@H](O[C@H]5O[C@H](COS(=O)(=O)O)[C@@H](O)[C@H](O)[C@H]5NS(=O)(=O)O)[C@H](O)[C@H]4O)[C@H](OS(=O)(=O)O)[C@H]3NS(=O)(=O)O)[C@H](O)[C@H]2OS(=O)(=O)O)[C@H](O)[C@H]1NS(=O)(=O)O [Arixtra]	–	–	–
